Our source for the Ki, MPE and Potency values is patent US8735411B2, “Macrocyclic benzofused pyrimidine derivatives” (AbbVie Inc., priority 2006, dated 2014).

The target of assay [1] is T1, histamine H4 receptor (Homo sapiens, UniProt Q9H3N8). In words: [3H]-histamine competition binding assay on membranes of transfected HEK-293 cells. On the set-up: expressed in transfected cells; host or cells: HEK-293 cells, transient transfection with pCINeo vector; membranes. To be noted: displacement of [3H]-histamine; Ki by Cheng-Prusoff equation; read-out: Potency. On the procedure:
In this assay, membranes were prepared from HEK-293 cells transiently transfected with the pCINeo expression vector harboring the histamine H4 receptor by homogenization of the cells on ice in TE buffer (50 mM Tris-HCl buffer, pH 7.4, containing 5 mM EDTA), 1 mM benzamidine, 2 μg/ml aprotinin, 1 μg/ml leupeptin, and 1 μg/ml pepstatin. The homogenate was centrifuged at 40,000 g for 20 minutes at 4° C. This step was repeated, and the resulting pellet was resuspended in TE buffer. Aliquots were frozen at −70° C. until needed. On the day of assay, membranes were thawed and diluted with TE buffer. Competition radioligand binding assays were performed with increasing concentrations of test compound in the presence of [^3H]-histamine incubated at 25° C. for 1 hour in a total volume of 0.5 ml of 50 mM Tris, 5 mM EDTA, pH 7.4. All binding reactions were terminated by filtration under vacuum onto polyethylenimine (0.3%) presoaked Unifilters (PerkinElmer Life Sciences) or Whatman GF/B filters (Whatman, Clifton, N.J.) followed by three brief washes with 4 ml of ice-cold TE buffer. Bound radiolabel was determined by liquid scintillation counting. For all of the radioligand competition binding assays, IC50 values and Hill slopes were determined by Hill transformation of the data and Ki values were determined by the Cheng-Prusoff equation.
Target sequence in this assay (Q9H3N8 whole entry, species assumed): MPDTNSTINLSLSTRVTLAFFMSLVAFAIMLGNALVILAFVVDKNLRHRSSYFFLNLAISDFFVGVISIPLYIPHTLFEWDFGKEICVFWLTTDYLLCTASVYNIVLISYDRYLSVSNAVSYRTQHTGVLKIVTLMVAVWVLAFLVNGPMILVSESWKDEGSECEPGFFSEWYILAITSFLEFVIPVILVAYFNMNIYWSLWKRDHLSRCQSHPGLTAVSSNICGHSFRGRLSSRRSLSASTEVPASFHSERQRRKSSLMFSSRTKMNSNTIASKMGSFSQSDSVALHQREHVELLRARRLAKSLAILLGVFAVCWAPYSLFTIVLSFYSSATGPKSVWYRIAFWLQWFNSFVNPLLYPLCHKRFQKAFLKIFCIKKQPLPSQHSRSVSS

The test system of assay [2] is inflammatory pain. In words: Analgesic effect against inflammatory pain: carrageenan-induced thermal hyperalgesia, hotbox assay. The class given is in vivo. The conditions noted are these: 100 micromole/kg i.p., 90 min after carrageenan, tested 30 min after dosing. On the procedure: To assess the effectiveness of representative compounds of the invention against acute model inflammatory pain, animals were tested in an acute model of carrageenan-induced thermal hyperalgesia (see for example, Honore, et al. Behavioural Brain Research 167 (2006) 355-364; Porreca, et al. Journal of Pharmacology and Experimental Therapeutics (2006) vol. 318 pp. 195-205). Carrageenan was injected into the test paw of the animal, and after 90 minutes, the test drug was administered by intraperitoneal dosing; the effect on thermal hyperalgesia was assessed in a hotbox assay which done 30 minutes after the intraperitoneal dosing of the test drug, and the MPE (maximal percent effect) reported by comparison to the control paw (not injected with carrageenan), according to 100 times the withdrawal latency of the carrageenan injected paw (in seconds) divided by the withdrawal latency of the control (not injected with carrageenan) paw.

For assay [3], the system named is neuropathic pain. Nature of the assay: Analgesic effect against neuropathic pain: L5/L6 spinal nerve ligation (Chung model), von Frey mechanical allodynia. The class given is in vivo, rat. To be noted: 30 minutes before testing. On the procedure: Animals were prepared for testing, by use of a surgical procedure that induces neuropathic pain in one paw. Male Sprague Dawley rats were purchased from Charles River (Portage, Mich.). Prior to surgery, animals were housed in groups and maintained in a temperature-regulated environment. Following nerve ligation surgery, animals were housed in groups, and had access to food and water ad libitum.
The L5 and L6 spinal nerves of anesthetized rats were tightly ligated in a manner described previously (see Kim and Chung, Pain (1992) vol. 50 pp. 355-363). An incision was made on the dorsal portion of the hip and the muscle was blunt-dissected to reveal the spinal processes. The L6 transverse process was removed, and the left side L5 and L6 spinal nerves were tightly ligated with 5.0 braided silk suture. The wound was cleaned, the membrane sewn with 4.0 dissolvable Vicryl suture and the skin closed with wound clips. The paw affected by the surgical procedure (the left paw) develops an allodynic response, a hypersensitivity to mechanical and other stimuli; neuropathic pain is assessed as an increased sensitivity in the surgically affected (left) allodynic paw compared to the control paw on the right side, and measured by comparing the response of the (left side) allodynic paw to the response of the unaffected right side control paw.
For the assessment of neuropathic pain, mechanical allodynia in the affected paw of animals that had undergone spinal nerve ligation was evaluated using testing with von Frey filaments. As described previously by S. R. Chaplan, et al (“Quantitative assessment of tactile allodynia in the rat paw” J. Neurosci. Meth. (1994) vol. 53 pp. 55-63), two weeks following surgery rats were acclimated to a testing box constructed of plexiglass with a wire mesh floor which allowed access to the plantar surface of the animal's hindpaws. Using an Up-Down method (Dixon, Annu. Rev. Pharmacol. Toxicol. (1980) vol. 20, pp. 441-462; Chaplan et al. “Quantitative assessment of tactile allodynia in the rat paw” J. Neuroscience Methods (1994) vol. 53 pp. 55-63), von Frey filaments of increasing stiffness were applied to the plantar surface of the hindpaws and the withdrawal response of the animals was observed; for the surgically affected paw with neuropathic pain (the left side paw) the baseline level of allodynia has a withdrawal threshold of ≦4 g of pressure. […] The efficacy of the compound in reducing neuropathic pain at different doses is determined by comparing response in the surgery-affected paw versus the response in the control paw. This is expressed as the MPE (maximum percent effect), or 100 times the withdrawal threshold of the allodynic (left side) divided by the withdrawal threshold of the control (right side).

In assay [4] the test system is pain in a surgical skin incision model. Nature of the assay: Analgesic effect in surgical skin incision model, von Frey mechanical allodynia. The assay is classed as in vivo, rat. The protocol:
This is a surgical skin incision model (Joshi, et al. Pain 123 (2006) 75-82). Animals (rats) were prepared for testing by subjecting them in a surgical procedure carried out under sterile conditions, where the plantaris muscle was elevated and incised longitudinally with the origin and insertion of the muscle remaining intact. The skin was then closed with two mattress sutures (e.g. 5-0 nylon sutures). After surgery, animals were allowed to recover on a warming plate and housed individually in cages with soft bedding. […] Animals were tested for mechanical allodynia using von Frey hair mechanical stimulation 2, 24, and 48 h after surgery as described for the Chung model.

The target in assay [5] is T1, histamine H4 receptor. Nature of the assay: In vitro histamine H4 potency in FLIPR (Ca2+ flux, HEK-293 cells coexpressing Gαqi5). The class given is cell-based. Also on record: expressed in transfected cells. To be noted: Kb for antagonists and inverse agonists, EC50 for partial agonists. The essentials:
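Fluo-4-loaded cells read on FLIPR for intracellular Ca2+ rise after compound addition, with pre-addition fluorescence subtracted. Peak responses per concentration expressed as % of the full-agonist histamine response. Concentration–response fits give Kb for antagonists/inverse agonists and EC50 for partial agonists.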
Target sequence in this assay (Q9H3N8 whole entry): as the sequence (Q9H3N8 whole entry, species assumed) above

Turning to `CNC1CN(c2nc(N)nc3c2CCCc2ccccc2-3)C1` [Example 3, 4-(3-Methylamino-azetidin-1-yl)-6,7-dihydro-5H-benzo[6,7]cyclohepta[1,2-d]pyrimidin-2-ylamine], the Ki in assay [1] came to 4 nM. Further, the MPE is listed as 41% in assay [2]; 36% in assay [3] (100 micromole/kg i.p.); 78% in assay [3] (300 micromole/kg i.p.); 21% in assay [4] (30 micromole/kg i.p.); 69% in assay [4] (100 micromole/kg i.p.). The same compound displayed a Potency in assay [5] of 9.3 nM.
For `CN[C@@H]1CCN(c2nc(N)nc3c2CCCc2ccccc2-3)C1` [Example 6, 4-(3-(R)-Methylamino-pyrrolidin-1-yl)-6,7-dihydro-5H-benzo[6,7]cyclohepta[1,2-d]pyrimidin-2-ylamine], the Ki in assay [1] turned out to be 5 nM. This compound also showed a Potency in assay [5] of 6.6 nM.
On to `Nc1nc2c(c(N3CCNCC3)n1)CCCc1ccccc1-2` [Example 7, 4-Piperazin-1-yl-6,7-dihydro-5H-benzo[6,7]cyclohepta[1,2-d]pyrimidin-2-ylamine], for which the Ki in assay [1] came to 8 nM. In addition, the MPE in assay [2] is 23%; in assay [3] (100 micromole/kg i.p.) it was 30%. In assay [5], this compound registered a Potency of 15 nM.
